From patent US20210220489A1, “AMYGDALAR NEURAL ENSEMBLE THAT ENCODES THE UNPL[…] PAIN” (The Board of Trustees of the Leland Stanford Junior …, priority 2020, published 2021)

Tested on: control neuropathic mice
Test: Pain behaviors in control neuropathic mice not expressing hM4-mCherry in the BLA
Assay type: in vivo
Settings: absence of hM4 expression, CNO 10 mg/kg, morphine as positive control
From the text: To induce a chronic pain state, we used a modified version of the Spared Nerve Injury (SNI) model of neuropathic pain, as previously described (70). This model entails surgical section of two of the sciatic nerve branches (common peroneal and tibial branches) while sparing the third (sural branch). […] To perform this peripheral nerve injury procedure, anesthesia was induced and maintained throughout surgery with isoflurane (4% induction, 1.5% maintenance in oxygen). The left hind leg was shaved and wiped clean with alcohol and betadine. We made a 1-cm incision in the skin of the mid-dorsal thigh, approximately where the sciatic nerve trifurcates. The biceps femoris and semimembranosus muscles were gently separated from one another with blunt scissors, thereby creating a <1-cm opening between the muscle groups to expose the common peroneal, tibial, and sural branches of the sciatic nerve. Next, −2 mm of both the common peroneal and tibial nerves were transected and removed, without suturing and with care not to distend the sural nerve. The leg muscles are left uncultured and the skin was closed with tissue adhesive (3M Vetbond), followed by a Betadine application. During recovery from surgery, mice were placed under a heat lamp until awake and achieved normal balanced movement. Mice were then returned to their home cage and closely monitored over the following three days for well-being.
To evaluate mechanical reflexive sensitivity, we used a logarithmically increasing set of 8 von Frey filaments (Stoelting), ranging in gram force from 0.07- to 6.0-g (93). These filaments were applied perpendicular to the plantar hindpaw with sufficient force to cause a slight bending of the filament. […] Using the Up-Down statistical method, the 50% withdrawal mechanical threshold scores were calculated for each mouse and then averaged across the experimental groups. The response frequency was calculated as the number of positive responses out of 10 stimulations, delivered at 30-s intervals.
To evaluate affective-motivational responses evoked by thermal stimulation (81), we applied either a single, unilateral 50-μL drop of water (5, 30, or 55° C.) or acetone (evaporative cooling) to the left hindpaw, and the duration of attending behavior was collected for up to 60 s after the stimulation. […] The track was subdivided into 25 temperature zones (4.8-cm D per zone), and we assessed the temperature at the center of each zone by a K-probe thermocouple. […] A video camera placed above the track recorded the position of the mouse within the temperature zones, and videos were later analyzed using a video-tracking software (Etho-vision, Noldus) for duration of zone occupancy, zone visits, distance, velocity, and acceleration.

## CN1CC[C@]23c4c5ccc(O)c4O[C@H]2[C@@H](O)C=C[C@H]3[C@H]1C5 [Morphine]
Acetone drop
  affective-motivational behaviors: reduced
Von Frey filaments
  reflex behaviors: reduced
